Measurements: US20060084135A1, “Compositions for manipulating the lifespan and stress response of cells and organisms” (priority 2003, published 2006)

Key:
[1] = test system: HeLa S3 cells; experiment: Cellular deacetylase assay with Fluor de Lys substrate; format: cell-based, human; conditions: 1 μM TSA
Procedure: FdL (200 μM) is added to growth media and cells are incubated for 1-3 hours to allow FdL to enter the cells and the lysine-deacetylated product (deAc-FdL) to accumulate intracellularly. Cells are lysed with detergent in the presence of 1 μM TSA and 1 mM nicotinamide. Addition of the non-cell-permeable Developer (BIOMOL) releases a fluorophor, specifically from deAc-FdL. […] Cells were grown adherently in DMEM/10% FCS and treated for 1 hour with 200 μM FdL, 1 μM TSA and either vehicle (0.5% final DMSO, Control) or 500 μM of the indicated compound. Intracellular accumulation of deAc-FdL was then determined as described briefly in FIG. 4a. […] Lysates were prepared and analyzed by Western blot as in FIG. 4c. […] Lysates were prepared and analyzed as above.
FIG. 6a through 6c show intracellular deacetylation activity measured with a cell-permeable, fluorogenic HDAC and sirtuin substrate. […] Intracellular and medium levels of deacetylated substrate (deAc-FdL) were determined according to the manufacturer's instructions (HDAC assay kit, BIOMOL). […]
Themed compound libraries (BIOMOL) were used for primary and secondary screening. […] HeLa cells were grown and the cellular deacetylation assays were performed and read, as above, but in full-volume 96-well microplates (Corning Costar 3595). […]

[2] = biological target: T1, recombinant human SIRT1 (Homo sapiens, UniProt Q96EB6); experiment: SIRT1 fluorescent deacetylation assay (p53-382 acetylated peptide substrate); format: biochemical; conditions: 25 μM NAD+, 25 μM p53-382 acetylated peptide
T1 sequence (Q96EB6 1-747): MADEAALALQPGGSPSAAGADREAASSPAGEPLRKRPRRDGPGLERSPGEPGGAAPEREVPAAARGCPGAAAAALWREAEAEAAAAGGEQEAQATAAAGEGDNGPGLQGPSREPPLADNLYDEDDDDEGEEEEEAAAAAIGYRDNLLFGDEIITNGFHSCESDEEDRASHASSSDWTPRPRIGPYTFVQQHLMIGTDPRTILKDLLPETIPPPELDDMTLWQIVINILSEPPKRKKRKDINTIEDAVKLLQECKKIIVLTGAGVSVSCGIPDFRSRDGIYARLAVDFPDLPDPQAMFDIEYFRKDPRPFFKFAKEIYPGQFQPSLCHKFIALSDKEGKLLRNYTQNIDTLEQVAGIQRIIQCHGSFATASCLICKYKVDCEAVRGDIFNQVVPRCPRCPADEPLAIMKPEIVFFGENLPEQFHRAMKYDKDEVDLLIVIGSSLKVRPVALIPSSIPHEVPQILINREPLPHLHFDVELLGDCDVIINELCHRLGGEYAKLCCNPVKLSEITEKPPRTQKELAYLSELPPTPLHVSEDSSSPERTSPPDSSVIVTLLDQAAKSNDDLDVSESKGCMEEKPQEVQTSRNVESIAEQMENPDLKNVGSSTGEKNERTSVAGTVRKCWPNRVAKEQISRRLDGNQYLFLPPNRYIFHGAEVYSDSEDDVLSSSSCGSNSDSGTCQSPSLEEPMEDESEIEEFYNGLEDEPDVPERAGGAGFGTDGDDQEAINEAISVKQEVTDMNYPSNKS

[3] = test system: S. cerevisiae; experiment: Yeast replicative lifespan; format: cell-based; conditions: 10 μM, wild type
Procedure: Average lifespan was determined for wild type untreated (□), quercetin (◯) and piceatannol (●).

Row | Ratio to Control Rate Mean ± SE ([2]; Supplementary Table 1, stilbenes and chalcones, 100 μM) | Ratio to Control Rate Mean ± SE ([2]; Table 1, 100 μM compound) | Compound | Signal insensitive to trichostatin A ([1]; HeLa cells growing adherently) | Effect on maximum lifespan [3] | Increase of average lifespan [3] [%] | TSA-insensitive cellular deacetylation signal ([1]; 500 μM compound, 200 μM FdL, 1 hour)
1 | – | – | CC(/C=C/C(=O)NO)=C\[C@@H](C)C(=O)c1ccc(N(C)C)cc1 [trichostatin A, reference compound] | 5-10% | – | – | –
2 | 8.53 ± 0.89 | 8.53 ± 0.89 | O=C(/C=C/c1ccc(O)c(O)c1)c1ccc(O)cc1O [Butein, 3,4,2′,4′-Tetrahydroxychalcone] | – | significantly increased | 31 | no effect
